The record followed here is patent publication US20090286834A1, “Pyridine Analogues VI” (AstraZeneca AB, priority 2006, published 2009).

The assay has as its target T1, P2Y12 receptor (Homo sapiens, UniProt Q9H244).
T1 construct: expressed in transfected cells; host or cells: CHO cells (membranes)
Put plainly: Functional inhibition of 2-Me-S-ADP induced P2Y12 signalling (35S-GTPγS, membranes from P2Y12 transfected CHO-cells). Format: biochemical. As to conditions: EC80 concentration of agonist 2-methyl-thio-adenosine diphosphate, 30° C. for 45 min. As to the method: Functional inhibition of the P2Y12 receptor can be measured by in vitro assays using cell membranes from P2Y12 transfected CHO-cells, the methodology is indicated below.
Functional inhibition of 2-Me-S-ADP induced P2Y12 signalling: 5 μg of membranes were diluted in 200 μl of 200 mM NaCl, 1 mM MgCl2, 50 mM HEPES (pH 7.4), 0.01% BSA, 30 μg/ml saponin and 10 μM GDP. To this was added an EC80 concentration of agonist (2-methyl-thio-adenosine diphosphate), the required concentration of test compound and 0.1 μCi ^35S-GTPγS. The reaction was allowed to proceed at 30° C. for 45 min. Samples were then transferred on to GF/B filters using a cell harvester and washed is with wash buffer (50 mM Tris (pH 7.4), 5 mM MgCl2, 50 mM NaCl). Filters were then covered with scintilant and counted for the amount of ^35S-GTPγS retained by the filter. Maximum activity was that determined in the presence of the agonist and minimum activity in the absence of the agonist following subtraction of the value determined for non-specific activity. The effect of compounds at various concentrations was plotted according to the equation
y=A+((B−A)/(1+((C/x)̂D)))
and IC50 estimated where A is the bottom plateau of the curve i.e. the final minimum y value B is the top of the plateau of the curve i.e. the final maximum y value C is the x value at the middle of the curve. […]

T1 sequence (Q9H244 whole entry): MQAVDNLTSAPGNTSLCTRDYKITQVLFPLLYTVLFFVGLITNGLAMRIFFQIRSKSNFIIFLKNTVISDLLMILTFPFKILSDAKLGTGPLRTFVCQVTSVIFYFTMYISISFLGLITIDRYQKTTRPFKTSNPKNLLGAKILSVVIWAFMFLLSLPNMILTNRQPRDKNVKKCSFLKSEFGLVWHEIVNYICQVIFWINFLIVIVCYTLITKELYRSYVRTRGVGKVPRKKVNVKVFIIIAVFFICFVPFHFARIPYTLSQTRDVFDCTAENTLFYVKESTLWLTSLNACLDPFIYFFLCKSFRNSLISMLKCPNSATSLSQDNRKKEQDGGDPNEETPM

For the compound `CCOC(=O)c1cc(C#N)c(NC2CCC(C(=O)NS(=O)(=O)c3ccc(Cl)s3)C2)nc1C(F)(F)F` (stereo not shown) [Example 3, Ethyl 6-{[3-({[(5-chloro-2-thienyl)sulfonyl]amino}carbonyl)cyclopentyl]amino}-5-cyano-2-(trifluoromethyl)nicotinate], the half-maximal inhibitory concentration (IC50) stood at 810 nM.
